This note sets out measurements from patent publication US9284319B2, “Heterocyclyl aminoimidazopyridazines” (BAYER INTELLECTUAL PROPERTY GMBH, priority 2011, dated 2016).

The target of assay [1] is T1, human full-length MKNK1 (Homo sapiens (Human), UniProt Q9BUB5, T344D). Description: MKNK1 kinase high ATP assay (TR-FRET). It is filed as biochemical. As to conditions: ATP 2 mM final; 15 min preincubation with enzyme. As for the experimental part: MKNK1 Kinase High ATP Assay
MKNK1-inhibitory activity at high ATP of compounds of the present invention after their preincubation with MKNK1 was quantified employing the TR-FRET-based MKNK1 high ATP assay as described in the following paragraphs.
As substrate for the kinase reaction the biotinylated peptide biotin-Ahx-[…] (C-terminus in amide form) was used, which can be purchased e.g. from the company Biosyntan (Berlin-Buch, Germany).
(§1) For the assay 50 nL of a 100 fold concentrated solution of the test compound in DMSO was pipetted into a black low volume 384 well microtiter plate (Greiner Bio-One, Frickenhausen, Germany), 2 μL of a solution of MKNK1 in aqueous assay buffer [50 mM HEPES pH 7.5, 5 mM magnesium chloride, 1.0 mM dithiothreitol, 0.005% (v/v) Nonidet-P40 (Sigma)] was added and the mixture was incubated for 15 min at 22° C. to allow pre-binding of the test compounds to the enzyme before the start of the kinase reaction. Then the kinase reaction was started by the addition of 3 μL of a solution of adenosine-tri-phosphate (ATP, 3.3 mM=>final conc. in the 5 μL assay volume is 2 mM) and substrate (0.1 μM=>final conc. in the 5 μL assay volume is 0.06 μM) in assay buffer and the resulting mixture was incubated for a reaction time of 30 min at 22° C. The concentration of MKNK1 was adjusted depending of the activity of the enzyme lot and was chosen appropriate to have the assay in the linear range, typical concentrations were in the range of 0.003 μg/mL. The reaction was stopped by the addition of 5 μL of a solution of TR-FRET detection reagents (5 nM streptavidine-XL665 [Cisbio Bioassays, Codolet, France] and 1 nM anti-ribosomal protein S6 (pSer236)-antibody from Invitrogen [#44921G] and 1 nM LANCE EU-W1024 labeled ProteinG [Perkin-Elmer, product no. AD0071]) in an aqueous EDTA-solution (100 mM EDTA, 0.1% (w/v) bovine serum albumin in 50 mM HEPES pH 7.5).
(§2) The resulting mixture was incubated for 1 h at 22° C. to allow the formation of complex between the phosphorylated biotinylated peptide and the detection reagents. Subsequently the amount of phosphorylated substrate was evaluated by measurement of the resonance energy transfer from the Eu-chelate to the streptavidine-XL. Therefore, the fluorescence emissions at 620 nm and 665 nm after excitation at 350 nm were measured in a TR-FRET reader, e.g. a Rubystar (BMG Labtechnologies, Offenburg, Germany) or a Viewlux (Perkin-Elmer). The ratio of the emissions at 665 nm and at 622 nm was taken as the measure for the amount of phosphorylated substrate.

Assay [2] addresses T1, human full-length MKNK1. Put plainly: MKNK1 kinase assay (TR-FRET). It is filed as biochemical. As to conditions: ATP 10 μM final; 15 min preincubation with enzyme. As for the experimental part:
MKNK1-inhibitory activity of compounds of the present invention was quantified employing the MKNK1 TR-FRET assay as described in the following paragraphs.
As substrate for the kinase reaction the biotinylated peptide biotin-Ahx-[…] (C-terminus in amide form) was used which can be purchased e.g. form the company Biosyntan (Berlin-Buch, Germany).
as §1, with “16.7 μM=>final” for “3.3 mM=>final”, “10 μM)” for “2 mM)”, “45” for “30”, “0.05” for “0.003”
as §2
Background: TR-FRET usually uses a lanthanide donor and a delayed reading to cut background.

The structures appear in SMILES notation.

T1 sequence (Q9BUB5 other isoform, or with tags, fused parts or gaps T344D): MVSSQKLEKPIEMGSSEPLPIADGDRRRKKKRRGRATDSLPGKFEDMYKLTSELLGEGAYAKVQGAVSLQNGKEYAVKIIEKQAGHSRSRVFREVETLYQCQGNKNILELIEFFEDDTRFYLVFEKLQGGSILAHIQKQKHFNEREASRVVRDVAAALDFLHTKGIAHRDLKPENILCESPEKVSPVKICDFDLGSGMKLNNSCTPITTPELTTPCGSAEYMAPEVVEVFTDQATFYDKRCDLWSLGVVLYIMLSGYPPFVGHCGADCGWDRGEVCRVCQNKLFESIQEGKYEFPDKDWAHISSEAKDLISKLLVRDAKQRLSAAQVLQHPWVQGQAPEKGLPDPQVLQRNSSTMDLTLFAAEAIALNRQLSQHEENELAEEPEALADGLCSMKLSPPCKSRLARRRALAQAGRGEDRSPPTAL

Turning to `OC[C@@H]1CCCN1c1ccc2ncc(-c3cc4ccccc4o3)n2n1` [Example 1, {(2S)-1-[3-(1-Benzofuran-2-yl)imidazo[1,2-b]pyridazin-6-yl]pyrrolidin-2-yl}methanol], the IC50 amounted to 0.007 µM in assay [1] and 0.019 µM in assay [2].
The corresponding values for `OC[C@H]1CCCN1c1ccc2ncc(-c3cc4ccccc4o3)n2n1` [Example 2, {(2R)-1-[3-(1-Benzofuran-2-yl)imidazo-[1,2-b]-pyridazin-6-yl]pyrrolidin-2-yl}-methanol] are 0.022 µM and 0.042 µM.
The corresponding values for `OC1CCN(c2ccc3ncc(-c4cc5ccccc5o4)n3n2)C1` (stereo not drawn) [Example 3, 1-[3-(1-Benzofuran-2-yl)imidazo[1,2-b]pyridazin-6-yl]pyrrolidin-3-ol] are 0.006 µM and 0.017 µM.
Taken in the same sequence, the figures for `O[C@@H]1CCCN(c2ccc3ncc(-c4cc5ccccc5o4)n3n2)C1` [Example 4, (3R)-1-[3-(1-Benzofuran-2-yl)imidazo[1,2-b]pyridazin-6-yl]piperidin-3-ol] were 0.015 µM and 0.044 µM.
As to `OCC1CCCN(c2ccc3ncc(-c4cc5ccccc5o4)n3n2)C1` (stereo not drawn) [Example 5, {1-[3-(1-Benzofuran-2-yl)imidazo[1,2-b]pyridazin-6-yl]piperidin-3-yl}methanol], the IC50 in assay [1] is 0.013 µM; in assay [2], 0.037 µM.
The corresponding values for `OC1CN(c2ccc3ncc(-c4cc5ccccc5o4)n3n2)C1` [Example 6, 1-[3-(1-Benzofuran-2-yl)imidazo[1,2-b]pyridazin-6-yl]azetidin-3-ol] are 0.012 µM and 0.033 µM.
Take `OC[C@@H]1CCN(c2ccc3ncc(-c4cc5ccccc5o4)n3n2)C1` [Example 7, {(3R)-1-[3-(1-Benzofuran-2-yl)imidazo[1,2-b]pyridazin-6-yl]pyrrolidin-3-yl}methanol]: the values for the IC50 in assay [1] and in assay [2] were 0.004 µM and 0.014 µM, respectively.
Consider `O[C@H]1CCN(c2ccc3ncc(-c4cc5ccccc5o4)n3n2)C1` [Example 8, (3S)-1-[3-(1-Benzofuran-2-yl)imidazo[1,2-b]pyridazin-6-yl]pyrrolidin-3-ol], for which the IC50 in assay [1] came to 0.015 µM; in assay [2], 0.019 µM.
Molecule `O[C@@H]1CCN(c2ccc3ncc(-c4cc5ccccc5o4)n3n2)C1` [Example 9, (3R)-1-[3-(1-Benzofuran-2-yl)imidazo[1,2-b]pyridazin-6-yl]pyrrolidin-3-ol] gave a 50% inhibitory concentration (IC50) in assay [2] of 0.015 µM.
The same measure, in the same setting: as for `OC[C@H]1CCN(c2ccc3ncc(-c4cc5ccccc5o4)n3n2)C1` [Example 10, {(3S)-1-[3-(1-Benzofuran-2-yl)imidazo[1,2-b]pyridazin-6-yl]pyrrolidin-3-yl}methanol], the figure is 0.02 µM.

What is called IC50 is the midpoint of a concentration-inhibition curve.
